Legend:
[1] = tested on: Wnt activity (Sp5-Luc reporter, SW480 colon carcinoma cells); experiment: Sp5-Luc Wnt reporter gene assay in SW480 colon carcinoma cells; assay type: cell-based; conditions: Homo sapiens; SW480 cells stably expressing Sp5-Luc reporter; 42 h incubation; BrightGlo luminescence normalized to DMSO
In short: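 IC50 values come from variable-slope four-parameter fits of luciferase signal normalized to DMSO wells. Stable Sp5-Luc reporter SW480 colon carcinoma cells were exposed to compounds in a 3-fold dilution series (source plates from 10 mM stock) for forty-two hours at 37 °C.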

[2] = tested on: primary human fibroblasts derived from IPF patients (LL29 cells); experiment: Inhibition of TGF-β1-induced fibrosis (αSMA staining) in primary human fibroblasts from IPF patients; assay type: cell-based; conditions: Fibroblast, 96 h, TGF-β1 20 ng/mL, 4 days, 11-point dose-response 10 μM to 1.87 nM
Excerpt: The above synthesized compounds were screened using primary human fibroblasts (derived from IPF patients) treated with TGF-β1 to determine their ability to inhibit the fibrotic process.
Primary human fibroblasts derived from IPF patients (LL29 cells) [^1Xiaoqiu Liu, et. al., “Fibrotic Lung Fibroblasts Show Blunted Inhibition by cAMP Due to Deficient cAMP Response Element-Binding Protein Phosphorylation”, Journal of Pharmacology and Experimental Therapeutics (2005), 315(2), 678-687; ^2Watts, K. L., et. al., “RhoA signaling modulates cyclin D1 expression in human lung fibroblasts; implications for idiopathic pulmonary fibrosis”, Respiratory Research (2006), 7(1), 88] were obtained from American Type Culture Collection (ATCC) and expanded in F12 medium supplemented with 15% Fetal Bovine Serum and Penicillin/Streptomycin.
Each compound was dissolved in DMSO as a 10 mM stock and used to prepare compound source plates. Serial dilution (1:2, 11-point dose-response curves from 10 μM to 1.87 nM) and compound transfer was performed using the ECHO 550 (Labcyte, Sunnyvale, Calif.) into 384-well clear bottom assay plates (Greiner Bio-One) with appropriate DMSO backfill for a final DMSO concentration of 0.1%. LL29 cells were plated at 1,500 cells/well in 80 μl/well F12 medium supplemented with 1% Fetal Bovine Serum. One hour after addition of the cells, TGF-β1 (Peprotech; 20 ng/mL) was added to the plates to induce fibrosis (ref. 1 and 2 above). Wells treated with TGF-β1 and containing DMSO were used as controls. Cells were incubated at 37° C. and 5% CO2 for 4 days. Following incubation for 4 days, SYTOX green nucleic acid stain (Life Technologies [Thermo Fisher Scientific]) was added to the wells at a final concentration of 1 uM and incubated at room temperature for 30 min. Cells were then fixed using 4% formaldehyde (Electron Microscopy Sciences), washed 3 times with PBS followed by blocking and permeabilization using 3% Bovine Serum Albumin (BSA; Sigma) and 0.3% Triton X-100 (Sigma) in PBS. Cells were then stained with antibody specific to α-smooth muscle actin (αSMA; Abcam) (ref 1 and 2 above) in 3% Bovine Serum Albumin (BSA; Sigma) and 0.3% Triton X-100 (Sigma) in PBS, and incubated overnight at 4° C. Cells were then washed 3 times with PBS, followed by incubation with Alexa Flor-647 conjugated secondary antibody (Life Technologies [Thermo Fisher Scientific]) and DAPI at room temperature for 1 hour. Cells were then washed 3 times with PBS and plates were sealed for imaging. αSMA staining was imaged by excitation at 630 nm and emission at 665 nm and quantified using the Compartmental Analysis program on the CellInsight CX5 (Thermo Scientific). Dead or apoptotic cells were excluded from analysis based on positive SYTOX green staining. % of total cells positive for αSMA were counted in each well and normalized to the average of 11 wells treated with TGF-β1 on the same plate using Dotmatics' Studies Software. The normalized averages (fold change over untreated) of 3 replicate wells for each compound concentration were used to create dose-responses curves and EC50 values were calculated using non-linear regression curve fit in the Dotmatics' Studies Software. The EC50 values are reported.

Compound `CCCCC(=O)Nc1cncc(-c2cnc3[nH]nc(-c4nc5c(-c6ccccn6)nccc5[nH]4)c3c2)c1` [Compound 148, N-(5-(3-(4-(Pyridin-2-yl)-1H-imidazo[4,5-c]pyridin-2-yl)-1H-pyrazolo[3,4-b]pyridin-5-yl)pyridin-3-yl)pentanamide] has an IC50 [1] of 6160 nM and an EC50 [2] of 9 nM.
In the case of `Fc1cccc(-c2nccc3[nH]c(-c4n[nH]c5ncc(-c6cnccn6)cc45)nc23)c1` [Compound 902, 3-(4-(3-Fluorophenyl)-1H-imidazo[4,5-c]pyridin-2-yl)-5-(pyrazin-2-yl)-1H-pyrazolo[3,4-b]pyridine], the IC50 [1] is reported as 705 nM and the EC50 [2] is reported as 9 nM.
In the case of `CC(C)(C)CC(=O)Nc1cncc(-c2cnc3[nH]nc(-c4nc5c(-c6ccccc6F)nccc5[nH]4)c3c2)c1` [Compound 68, N-(5-(3-(4-(2-Fluorophenyl)-1H-imidazo[4,5-c]pyridin-2-yl)-1H-pyrazolo[3,4-b]pyridin-5-yl)pyridin-3-yl)-3,3-dimethylbutanamide], the IC50 [1] is reported as 95.7 nM and the EC50 [2] is reported as 930 nM.
`Cc1ccc(-c2nccc3[nH]c(-c4n[nH]c5ncc(-c6cncc(NC(=O)C7CCCC7)c6)cc45)nc23)s1` [Compound 359, N-(5-(3-(4-(5-Methylthiophen-2-yl)-1H-imidazo[4,5-c]pyridin-2-yl)-1H-pyrazolo[3,4-b]pyridin-5-yl)pyridin-3-yl)cyclopentanecarboxamide] was tested, and the IC50 [1] was 29.9 nM and the EC50 [2] was 4850 nM.
With `NC1CN(c2cncc(-c3cnc4[nH]nc(-c5nc6c(-c7cccc(F)c7)nccc6[nH]5)c4c3)n2)C1` [Compound 890, 1-(6-(3-(4-(3-Fluorophenyl)-1H-imidazo[4,5-c]pyridin-2-yl)-1H-pyrazolo[3,4-b]pyridin-5-yl)pyrazin-2-yl)azetidin-3-amine] the IC50 [1] was 365 nM and the EC50 [2] was 205 nM.
Work on `Cc1ccncc1-c1cnc2[nH]nc(-c3nc4c(-c5ccsc5)nccc4[nH]3)c2c1` [Compound 239, 5-(4-Methylpyridin-3-yl)-3-(4-(thiophen-3-yl)-1H-imidazo[4,5-c]pyridin-2-yl)-1H-pyrazolo[3,4-b]pyridine] yielded an IC50 [1] of 18 nM and an EC50 [2] of 24 nM.
With `CS(=O)(=O)NCc1cc(F)cc(-c2nccc3[nH]c(-c4n[nH]c5ncc(-c6cncc(NC(=O)c7ccccc7)c6)cc45)nc23)c1` [Compound 401, N-(5-(3-(4-(3-Fluoro-5-(methylsulfonamidomethyl)phenyl)-1H-imidazo[4,5-c]pyridin-2-yl)-1H-pyrazolo[3,4-b]pyridin-5-yl)pyridin-3-yl)benzamide] the IC50 [1] was > 10000 nM and the EC50 [2] was ≥ 9990 nM.
`CN(C)c1cncc(-c2cnc3[nH]nc(-c4nc5c(N6CCCCC6)nccc5[nH]4)c3c2)c1` [Compound 163, N,N-Dimethyl-5-(3-(4-(piperidin-1-yl)-1H-imidazo[4,5-c]pyridin-2-yl)-1H-pyrazolo[3,4-b]pyridin-5-yl)pyridin-3-amine] gave an IC50 [1] of 777 nM and an EC50 [2] of 9 nM.
With `Fc1cccc(-c2nccc3[nH]c(-c4n[nH]c5ncc(-c6cncc(OC7CCNCC7)c6)cc45)nc23)c1` [Compound 892, 3-(4-(3-Fluorophenyl)-1H-imidazo[4,5-c]pyridin-2-yl)-5-(5-(piperidin-4-yloxy)pyridin-3-yl)-1H-pyrazolo[3,4-b]pyridine] the IC50 [1] was 315 nM and the EC50 [2] was 9 nM.
For `CC(C)Nc1cncc(-c2cnc3[nH]nc(-c4nc5c(-c6cccnc6)nccc5[nH]4)c3c2)c1` [Compound 90, N-Isopropyl-5-(3-(4-(pyridin-3-yl)-1H-imidazo[4,5-c]pyridin-2-yl)-1H-pyrazolo[3,4-b]pyridin-5-yl)pyridin-3-amine], the IC50 [1] was 79.7 nM and the EC50 [2] was ≥ 9990 nM.
`CN(C)Cc1cncc(-c2cnc3[nH]nc(-c4nc5c(N6CCCCC6)nccc5[nH]4)c3c2)c1` [Compound 169, N,N-Dimethyl-1-(5-(3-(4-(piperidin-1-yl)-1H-imidazo[4,5-c]pyridin-2-yl)-1H-pyrazolo[3,4-b]pyridin-5-yl)pyridin-3-yl)methanamine] showed an IC50 [1] of 2270 nM and an EC50 [2] of 888 nM.
Work on `FC1(F)CCN(Cc2cncc(-c3cnc4[nH]nc(-c5nc6c(-c7cccs7)nccc6[nH]5)c4c3)c2)C1` [Compound 311, 5-(5-((3,3-Difluoropyrrolidin-1-yl)methyl)pyridin-3-yl)-3-(4-(thiophen-2-yl)-1H-imidazo[4,5-c]pyridin-2-yl)-1H-pyrazolo[3,4-b]pyridine] yielded an IC50 [1] of 22.8 nM and an EC50 [2] of 174 nM.
`CC(C)C(=O)Nc1cncc(-c2cnc3[nH]nc(-c4nc5c(-c6ccccc6F)nccc5[nH]4)c3c2)c1` [Compound 61, N-(5-(3-(4-(2-Fluorophenyl)-1H-imidazo[4,5-c]pyridin-2-yl)-1H-pyrazolo[3,4-b]pyridin-5-yl)pyridin-3-yl)isobutyramide] was tested, and the IC50 [1] was 28 nM and the EC50 [2] was > 10000 nM.
Work on `O=C(Nc1cncc(-c2cnc3[nH]nc(-c4nc5c(-c6ccccc6F)nccc5[nH]4)c3c2)c1)C1CCCC1` [Compound 73, N-(5-(3-(4-(2-Fluorophenyl)-1H-imidazo[4,5-c]pyridin-2-yl)-1H-pyrazolo[3,4-b]pyridin-5-yl)pyridin-3-yl)cyclopentanecarboxamide] yielded an IC50 [1] of 60.2 nM and an EC50 [2] of 611 nM.
For `CS(=O)(=O)NCc1cc(F)cc(-c2nccc3[nH]c(-c4n[nH]c5ncc(-c6cncnc6)cc45)nc23)c1` [Compound 416, N-(3-Fluoro-5-(2-(5-(pyrimidin-5-yl)-1H-pyrazolo[3,4-b]pyridin-3-yl)-1H-imidazo[4,5-c]pyridin-4-yl)benzyl)methanesulfonamide], the IC50 [1] was > 10000 nM and the EC50 [2] was ≥ 9990 nM.
With `O=C(Cc1ccccc1)Nc1cncc(-c2cnc3[nH]nc(-c4nc5c(-c6ccncc6)nccc5[nH]4)c3c2)c1` [Compound 114, 2-Phenyl-N-(5-(3-(4-(pyridin-4-yl)-1H-imidazo[4,5-c]pyridin-2-yl)-1H-pyrazolo[3,4-b]pyridin-5-yl)pyridin-3-yl)acetamide] the IC50 [1] was > 10000 nM and the EC50 [2] was ≥ 9990 nM.
`CN(C)CCNc1cc(F)cc(-c2nccc3[nH]c(-c4n[nH]c5ncc(-c6cncc(CNCC7CCCC7)c6)cc45)nc23)c1` [Compound 440, N^1-(3-(2-(5-(5-(((Cyclopentylmethyl)amino)methyl)pyridin-3-yl)-1H-pyrazolo[3,4-b]pyridin-3-yl)-1H-imidazo[4,5-c]pyridin-4-yl)-5-fluorophenyl)-N^2,N^2-dimethylethane-1,2-diamine] showed an IC50 [1] of 752 nM and an EC50 [2] of 858 nM.
With `CCCC(=O)Nc1cncc(-c2cnc3[nH]nc(-c4nc5c(-c6ccncc6)nccc5[nH]4)c3c2)c1` [Compound 121, N-(5-(3-(4-(Pyridin-4-yl)-1H-imidazo[4,5-c]pyridin-2-yl)-1H-pyrazolo[3,4-b]pyridin-5-yl)pyridin-3-yl)butyramide] the IC50 [1] was > 10000 nM and the EC50 [2] was ≥ 9990 nM.
Work on `CC(C)(C)C(=O)Nc1cncc(-c2cnc3[nH]nc(-c4nc5c(-c6ccc(F)s6)nccc5[nH]4)c3c2)c1` [Compound 320, N-(5-(3-(4-(5-Fluorothiophen-2-yl)-1H-imidazo[4,5-c]pyridin-2-yl)-1H-pyrazolo[3,4-b]pyridin-5-yl)pyridin-3-yl)pivalamide] yielded an IC50 [1] of 9.3 nM and an EC50 [2] of 9 nM.

From patent publication US9493487B2, “3-(1H-imidazo[4,5-C]pyridin-2-YL)-1H-pyrazolo[3,4-B]pyridine and therapeutic uses thereof” (Samumed, LLC, priority 2014, dated 2016)
